From PubChem BioAssay AID256 (DTP/NCI, 2004)
Several values for one entry are separate records, joined by “and”; a condition that tells them apart may be missing. Equal entries are not always repeated. Inconclusive results and toxic doses are left out. The calls were made as follows: active = survival T/C of 150% or more; inactive = T/C below 125% in these data. Non-standard residues stand in square brackets, D forms with d. Residues, ends and D or L forms follow the SMILES beside them. ξ: configuration not given here. *: point of attachment. Cbz = O=C(OCc1ccccc1)*; ξP = O=C(O)C1CCCN1

Test system: CD2F1 mice, L1210 leukemia ip, survival T/C
Assay: NCI In Vivo Anticancer Drug Screen. Data for tumor model L1210 Leukemia (intraperitoneal) in CD2F1 (CDF1) mice
Conditions: higher = longer survival
Outline: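 Ratio T/C, where T is the treated-group value and C the vehicle-dosed control value, from mice implanted with a transplantable tumor.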

[1] = endpoint: mean survival time, dose: 200.0 mg/kg/injection, schedule: Q01DX001 (ip), vehicle: saline with Tween-80
[2] = endpoint: mean survival time, dose: 400.0 mg/kg/injection, schedule: Q01DX001 (ip), vehicle: saline with Tween-80
[3] = endpoint: mean survival time, dose: 100.0 mg/kg/injection, schedule: Q04DX003 (ip), vehicle: saline with Tween-80
[4] = endpoint: mean survival time, dose: 200.0 mg/kg/injection, schedule: Q04DX003 (ip), vehicle: saline with Tween-80
[5] = endpoint: mean survival time, dose: 400.0 mg/kg/injection, schedule: Q04DX003 (ip), vehicle: saline with Tween-80
[6] = endpoint: mean survival time, dose: 100.0 mg/kg/injection, schedule: Q01DX009 (ip), vehicle: saline with Tween-80
[7] = endpoint: mean survival time, dose: 200.0 mg/kg/injection, schedule: Q01DX009 (ip), vehicle: saline with Tween-80
[8] = endpoint: mean survival time, dose: 100.0 mg/kg/injection, schedule: Q04DX002 (ip), vehicle: saline with Tween-80
[9] = endpoint: mean survival time, dose: 200.0 mg/kg/injection, schedule: Q04DX002 (ip), vehicle: saline with Tween-80
[10] = endpoint: mean survival time, dose: 400.0 mg/kg/injection, schedule: Q04DX002 (ip), vehicle: saline with Tween-80
[11] = endpoint: mean survival time, dose: 50.0 mg/kg/injection, schedule: Q01DX009 (ip), vehicle: saline with Tween-80
[12] = endpoint: mean survival time, dose: 100.0 mg/kg/injection, schedule: Q01DX009 (ip), vehicle: saline
[13] = endpoint: mean survival time, dose: 200.0 mg/kg/injection, schedule: Q01DX009 (ip), vehicle: saline
[14] = endpoint: mean survival time, dose: 400.0 mg/kg/injection, schedule: Q01DX009 (ip), vehicle: saline
[15] = endpoint: mean survival time, dose: 12.5 mg/kg/injection, schedule: Q01DX009 (ip), vehicle: saline with Tween-80
[16] = endpoint: mean survival time, dose: 25.0 mg/kg/injection, schedule: Q01DX009 (ip), vehicle: saline with Tween-80
[17] = endpoint: mean survival time, dose: 400.0 mg/kg/injection, schedule: Q01DX009 (ip), vehicle: saline with Tween-80
[18] = endpoint: mean survival time, dose: 100.0 mg/kg/injection, schedule: Q01DX001 (ip), vehicle: saline with Tween-80

Measured: T/C

COc1ccc(/C=C/C(=O)Oc2cc(O)cc(O)c2)cc1
inactive: endpoint: mean survival time, dose: 12.5 mg/kg/injection, schedule: Q04DX002 (ip), vehicle: saline with Tween-80 97 % of control | endpoint: mean survival time, dose: 25.0 mg/kg/injection, schedule: Q04DX002 (ip), vehicle: saline with Tween-80 93 % of control | endpoint: mean survival time, dose: 50.0 mg/kg/injection, schedule: Q04DX002 (ip), vehicle: saline with Tween-80 101 % of control | [1] 94 % of control | [2] 92 % of control

COc1cccc(Cc2c[nH]c(=O)[nH]c2=O)c1
inactive: [3] 98 % of control | [4] 100 % of control | [5] 92 % of control

CCN(C(=O)c1ccccc1Cl)C(c1ccco1)P(=O)(c1ccccc1)c1ccccc1 (stereo not drawn)
inactive: [6] 90 % of control | [7] 107 % of control

C#CCSc1c(Cl)c(Cl)c(Cl)c(Cl)c1Cl
inactive: [8] 87 % of control | [9] 95 % of control | [10] 87 % of control

OCc1ccc(Cl)cc1Cl
inactive: [6] 93 % of control | [7] 92 % of control

Cc1cc(C)[nH]c(=S)n1
inactive: [11] 100 % of control | [6] 96 % of control | [7] 96 % of control

C#CCOC(=O)NC1CCCCC1
inactive: endpoint: mean survival time, dose: 100.0 mg/kg/injection, schedule: Q04DX003 (ip), vehicle: Klucel (hydroxypropylcellulose) (HPC) 104 % of control | endpoint: mean survival time, dose: 200.0 mg/kg/injection, schedule: Q04DX003 (ip), vehicle: Klucel (hydroxypropylcellulose) (HPC) 105 % of control | endpoint: mean survival time, dose: 400.0 mg/kg/injection, schedule: Q04DX003 (ip), vehicle: Klucel (hydroxypropylcellulose) (HPC) 102 % of control

OCC1OC(n2cnc3c2nnn2ccnc32)C(O)C1O (stereo not drawn)
inactive: [12] 112 % of control | [13] 106 % of control | [14] 115 % of control

OCC1OC(c2nn(-c3ccccc3)[n+](-c3ccccc3)n2)C(O)C1O (stereo not drawn)
inactive: endpoint: mean survival time, dose: 12.5 mg/kg/injection, schedule: Q01DX005 (ip), vehicle: water 106 % of control | endpoint: mean survival time, dose: 25.0 mg/kg/injection, schedule: Q01DX005 (ip), vehicle: water 97 % of control | endpoint: mean survival time, dose: 50.0 mg/kg/injection, schedule: Q01DX005 (ip), vehicle: water 95 % of control | endpoint: mean survival time, dose: 100.0 mg/kg/injection, schedule: Q01DX005 (ip), vehicle: water 106 % of control | endpoint: mean survival time, dose: 200.0 mg/kg/injection, schedule: Q01DX005 (ip), vehicle: water 103 % of control

c1ccc2c(c1)c1ccccc1n2CCCCn1c2ccccc2c2ccccc21
inactive: [15] 95 % of control | [16] 87 % of control | [11] 101 % of control and 102 % of control | [6] 97 % of control | [7] 93 % of control

CCC1(O)C(=O)OCc2c1cc1n(c2=O)Cc2cc3cc(OC)c(OC)cc3nc2-1 (stereo not drawn)
inactive: endpoint: median survival time, dose: 6.25 mg/kg/injection, schedule: Q04DX002 (ip), vehicle: saline with Tween-80 103 % of control | endpoint: median survival time, dose: 12.5 mg/kg/injection, schedule: Q04DX002 (ip), vehicle: saline with Tween-80 101 % of control | endpoint: median survival time, dose: 25.0 mg/kg/injection, schedule: Q04DX002 (ip), vehicle: saline with Tween-80 103 % of control | endpoint: median survival time, dose: 50.0 mg/kg/injection, schedule: Q04DX002 (ip), vehicle: saline with Tween-80 94 % of control

Oc1ccccc1CNc1ccccc1
inactive: [3] 98 % of control | [4] 93 % of control | [5] 104 % of control

CC1(C)OC1CS(=O)c1ccccc1 (stereo not drawn)
inactive: [15] 95 % of control | endpoint: mean survival time, dose: 12.5 mg/kg/injection, schedule: Q01DX009 (ip), vehicle: saline 98 % of control | [16] 98 % of control | endpoint: mean survival time, dose: 25.0 mg/kg/injection, schedule: Q01DX009 (ip), vehicle: saline 93 % of control | [11] 95 % of control | endpoint: mean survival time, dose: 50.0 mg/kg/injection, schedule: Q01DX009 (ip), vehicle: saline 101 % of control | [6] 95 % of control | [12] 95 % of control | [7] 98 % of control | [13] 105 % of control | [17] 93 % of control | [14] 98 % of control

CCCCC1=C(P(=O)(OCC)OCC)C(F)(F)C(F)(F)C1(F)F
inactive: endpoint: mean survival time, dose: 75.0 mg/kg/injection, schedule: Q01DX001 (ip), vehicle: other 98 % of control | endpoint: mean survival time, dose: 150.0 mg/kg/injection, schedule: Q01DX001 (ip), vehicle: other 86 % of control | endpoint: mean survival time, dose: 300.0 mg/kg/injection, schedule: Q01DX001 (ip), vehicle: other 100 % of control

O=C(CNC(=O)OCc1ccccc1)NCC(=O)N1CCCC1C(=O)O (stereo not drawn) (Cbz-Gly-Gly-[ξP]-OH)
inactive: endpoint: mean survival time, dose: 100.0 mg/kg/injection, schedule: Q04DX003 (ip), vehicle: saline 98 % of control | endpoint: mean survival time, dose: 200.0 mg/kg/injection, schedule: Q04DX003 (ip), vehicle: saline 96 % of control | endpoint: mean survival time, dose: 400.0 mg/kg/injection, schedule: Q04DX003 (ip), vehicle: saline 101 % of control

CCN=Cc1ccccc1O.CCN=Cc1ccccc1O.[Pd]
inactive: [18] 106 % of control | [1] 95 % of control | [2] 95 % of control

O=S(=O)(O)c1cc(O)ccc1O.O=S(=O)(O)c1cc(O)ccc1O.[NH-]C1CCCCC1[NH-].[Pt+2]
active: endpoint: median survival time, dose: 25.0 mg/kg/injection, schedule: Q04DX003 (ip), vehicle: saline 162 % of control | endpoint: median survival time, dose: 50.0 mg/kg/injection, schedule: Q04DX003 (ip), vehicle: saline 150 % of control and 337 % of control | endpoint: median survival time, dose: 100.0 mg/kg/injection, schedule: Q04DX003 (ip), vehicle: saline 235 % of control and 375 % of control
inactive: endpoint: median survival time, dose: 6.25 mg/kg/injection, schedule: Q04DX003 (ip), vehicle: saline 117 % of control | endpoint: median survival time, dose: 12.5 mg/kg/injection, schedule: Q04DX003 (ip), vehicle: saline 123 % of control

O=C1Nc2ccc([N+](=O)[O-])c3c([N+](=O)[O-])ccc1c23
inactive: [3] 98 % of control | [4] 97 % of control | [5] 102 % of control

Cc1nc(C(=O)O)c(C(=O)O)[nH]1
inactive: [6] 98 % of control | [3] 100 % of control | [7] 97 % of control | [4] 94 % of control

COc1ccc(NC(=O)Oc2c(C)cccc2C)cc1
inactive: [8] 97 % of control | [9] 97 % of control | [10] 101 % of control

CCCCCCCCC(CCCCCC)CCCCCCCC
inactive: endpoint: mean survival time, dose: 100.0 mg/kg/injection, schedule: Q01DX001 (ip), vehicle: saline 96 % of control | endpoint: mean survival time, dose: 200.0 mg/kg/injection, schedule: Q01DX001 (ip), vehicle: saline 96 % of control | endpoint: mean survival time, dose: 400.0 mg/kg/injection, schedule: Q01DX001 (ip), vehicle: saline 97 % of control

O=c1c(Cl)cc(Cl)cn1S(=O)(=O)c1ccc([N+](=O)[O-])cc1
inactive: [6] 100 % of control | [3] 102 % of control | [7] 102 % of control | [4] 102 % of control | [17] 98 % of control | [5] 101 % of control

CNCCNC1=C(Cl)C(=O)c2ccccc2C1=O
inactive: endpoint: mean survival time, dose: 6.25 mg/kg/injection, schedule: Q04DX003 (ip), vehicle: saline with Tween-80 101 % of control | endpoint: mean survival time, dose: 12.5 mg/kg/injection, schedule: Q04DX003 (ip), vehicle: saline with Tween-80 101 % of control | endpoint: mean survival time, dose: 25.0 mg/kg/injection, schedule: Q04DX003 (ip), vehicle: saline with Tween-80 96 % of control and 102 % of control

COc1cc(C2c3cc4c(cc3CC3COC(=O)C32)OCO4)cc(OC)c1O (stereo not drawn)
inactive: endpoint: mean survival time, dose: 0.5 mg/kg/injection, schedule: Q01DX009 (ip), vehicle: saline with Tween-80 91 % of control | endpoint: mean survival time, dose: 1.0 mg/kg/injection, schedule: Q01DX009 (ip), vehicle: saline with Tween-80 100 % of control | endpoint: mean survival time, dose: 2.0 mg/kg/injection, schedule: Q01DX009 (ip), vehicle: saline with Tween-80 112 % of control | endpoint: mean survival time, dose: 4.0 mg/kg/injection, schedule: Q01DX009 (ip), vehicle: saline with Tween-80 100 % of control

O=C(O)CNCP(=O)(O)O
inactive: [6] 95 % of control | [3] 105 % of control | [7] 93 % of control | [4] 102 % of control | [17] 89 % of control | [5] 100 % of control

COC1CC2C=C(C)/C=C/C=C/C(=O)NC(c3ccccc3)C/C=C/CCC(O)CC(=O)C2=C1O (stereo not drawn)
inactive: endpoint: median survival time, dose: 3.12 mg/kg/injection, schedule: Q01DX009 (ip), vehicle: Klucel (hydroxypropylcellulose) (HPC) 108 % of control | endpoint: median survival time, dose: 6.25 mg/kg/injection, schedule: Q01DX009 (ip), vehicle: Klucel (hydroxypropylcellulose) (HPC) 111 % of control | endpoint: median survival time, dose: 12.5 mg/kg/injection, schedule: Q01DX009 (ip), vehicle: Klucel (hydroxypropylcellulose) (HPC) 101 % of control

CCOc1ccc(N=Cc2ccccc2O)cc1
inactive: [18] 94 % of control | [1] 94 % of control | [2] 87 % of control

CCOc1cc(C)cc(C(=O)O)c1
inactive: [8] 97 % of control | [9] 90 % of control | [10] 97 % of control
